{
  "source": "patent US20130281311A1",
  "about": "“SPECIFIC BIOMARKER FOR IDENTIFICATON OF EXPOSURE TO PROPIONALDEHYDE AND THE METHOD OF IDENTIFICATION USING THE SAME” (KOREA INSTITUTE OF SCIENCE AND TECHNOLOGY, priority 2012, published 2013)",
  "key": {"[1]": {"test_system": "LPAR1 (lysophosphatidic acid receptor 1; NM_057159)", "assay": "Oligo microarray gene expression in A549 cells, LPAR1", "assay_type": "cell-based, human", "details": "A549, 48 hours at the concentration of Example 1-2, Cy5/Cy3 ratio", "experimental": "(§1) A549 cells were distributed in 6-well plate at the density of 25×10^4 cells/ml, to which propionaldehyde was treated for 48 hours at the concentration determined in Example <1-2>. Total RNA was extracted from the cells by using trizol reagent according to the manufacturer's protocol (Invitrogen life technologies, USA), followed by purification by using RNease mini kit (Qiagen, USA). Genomic DNA was eliminated by using RNase-free DNase set (Qiagen, USA) during the RNA purification. The amount of total RNA was measured with spectrophotometer, and the concentration was confirmed by ND-1000 Spectrophotometer (Thermo Fisher Scientific Inc., USA) and Agilent 2100 Bioanalyzer (Agilent).\n(§2) For oligomicroarray analysis, cDNA was synthesized by using the total RNA obtained from the experimental group treated with propionaldehyde prepared in Example <2-1>. 30 μg of the obtained total RNA and 2 μg of oligo (dT) primer (1 μg/μl) were mixed together, followed by reaction at 65° C. for 10 minutes, which was transferred into ice for annealing. […]\n(§3) Hybridization images on the slide were scanned with Agilent C scanner (Agilent technologies, CA, USA). […] To obtain gene expression rate, the scanned images were analyzed by using Agilent Feature Extraction 10.7.3.1 (Agilent technologies, CA, USA). […]"}, "[2]": {"assay": "Cytotoxicity test (MTT assay)", "assay_type": "cell-based, human", "details": "human, A549 cells; A549 cell line, 48 hours, MTT, OD540; read-out: IC20 (the concentration showing 20% survival rate)", "experimental": "(§4) A549 cells (Korean Cell Line Bank), the human lung cancer tissue derived cell line, were cultured in 100 mm dish containing RPMI (Gibro-BRL, USA) supplemented with 10% FBS until the confluency reached 80%. The present inventors selected propionaldehyde, one of aldehydes among many volatile organic compounds exposed in environment, as a target material based on the previous studies and reports, and then dissolved in DMSO (dimethyl sulfoxide). The concentration of vehicle was up to 0.1% in every experiment.\n(§5) MTT assay was performed with A549 cell line according to the method of Mossman, et al (J. Immunol. Methods, 65, 55-63, 1983).\n(§6) Particularly, the cells were distributed in 24-well plate (3.5×10^4 cells/well) containing RPMI (Gibro-BRL, USA) and then treated with propionaldehyde dissolved in DMSO. 48 hours later, 5 mg/ml of MTT (3-4,5-dimethylthiazol-2,5-diphenyltetra zolium bromide) was added thereto, followed by culture at 37° C. for 3 hours. Then, the medium was discarded and the formed formazan crystal was dissolved in […] of DMSO, which was aliquoted in 96-well plate. OD540 was measured."}, "A549 cells [3]": {"test_system": "A549 cells", "assay": "Cytotoxicity test (MTT assay)", "assay_type": "cell-based, human", "details": "A549, result in words", "experimental": "as §4, §5, §6"}, "[4]": {"test_system": "HMOX1 (heme oxygenase 1; NM_002133)", "assay": "Oligo microarray gene expression in A549 cells, HMOX1", "assay_type": "cell-based, human", "details": "A549, 48 hours at the concentration of Example 1-2, Cy5/Cy3 ratio", "experimental": "as §1, §2, §3"}, "[5]": {"test_system": "AGT, LPAR1, SECTM1, TNFSF10, HMOX1", "assay": "Quantitative real-time RT-PCR of the 5 marker genes", "assay_type": "cell-based, human", "details": "endogenous control MDH1; result in words", "experimental": "At that time, to confirm the propionaldehyde specific expression changes, the said genes were investigated with their expression patterns using the additional 5 aldehydes listed in Table 3.\nParticularly, cDNA was synthesized by performing reverse transcription by using oligo dT primer and Superscript kit (Omniscipt™ kit, Qiagen, Co., USA). 0.2 μl of the synthesized cDNA was mixed with 3.8 μl of water, 0.5 μl of sense primer, 0.5 μl of anti-sense primer, and 5 μl of SYBR Green I staining supermix (Bio-rad, USA), which was loaded in PCR tube, followed by reaction in My IQ real-time PCR machine designed to execute reaction as follows: step 1, 95° C. for 3 minutes; step 2 (45 cycles), step 2-1, 95° C. for 10 seconds; step 2-2, 57° C. for 45 seconds; step 3, 95° C. for 1 minute; step 4, 55° C. for 1 minute; step 5 (80 cycles), 55° C. for 10 seconds. The PCR product was stained with SYBR Green I (Bio-rad, USA) to quantify thereof. SYBR Green I staining is the method taking advantage of intercalating with double-stranded DNA, and thus the more double-stranded DNA is produced, the stronger the fluorescence intensity is obtained during PCR. Primers for the target gene used for PCR and the endogenous control (MDH1) were added to SYBR Green master-mix, followed by PCR. […] Then, PCR was performed and the result was analyzed by using quantitative software."}, "[6]": {"test_system": "AGT (angiotensinogen; NM_000029)", "assay": "Oligo microarray gene expression in A549 cells, AGT", "assay_type": "cell-based, human", "details": "A549, 48 hours at the concentration of Example 1-2, Cy5/Cy3 ratio", "experimental": "as §1, §2, §3"}, "A549 cells [7]": {"test_system": "A549 cells", "assay": "Human whole genome oligo microarray, genome-wide expression change", "assay_type": "cell-based", "details": "A549, 48 hours", "experimental": "In a preferred embodiment of the present invention, to screen a biomarker for the identification of propionaldehyde specific exposure, the present inventors treated propionaldehyde to the human lung cancer tissue derived cell line A549 and then investigated cytotoxicity therein. […] Based on the result of that experiment, the concentration of propionaldehyde was determined. Propionaldehyde was treated to the human lung cancer tissue derived cell line at the determined concentration. From the cell line treated with propionaldehyde, mRNA was extracted, followed by synthesis of cDNA which was labeled with fluorescein (Cy5). The control not treated with propionaldehyde was labeled with Cy3. The fluorescein-labeled cDNA was hybridized with 8×60 k oligomicroarray chip [Human whole genome oligo microarray (Agilent, USA)], followed by scanning fluorescence image to analyze gene expression patterns (see FIG. 2). […] 5 kinds of genes whose expressions were increased or decreased specifically by propionaldehyde alone among […] (butylaldehyde, valeradehyde, hexanal, heptanal, octanal, and propionaldehyde) were selected by using real-time quantitative PCR (see FIG. 3, Table 3, and Table 4). […]\nA549 cells were distributed in 6-well plate at the density of 25×10^4 cells/ml, to which propionaldehyde was treated for 48 hours at the concentration determined in Example <1-2>. […]"}, "[8]": {"test_system": "SECTM1 (secreted and transmembrane 1; NM_003004)", "assay": "Oligo microarray gene expression in A549 cells, SECTM1", "assay_type": "cell-based, human", "details": "A549, 48 hours at the concentration of Example 1-2, Cy5/Cy3 ratio", "experimental": "as §1, §2, §3"}, "[9]": {"test_system": "TNFSF10 (tumor necrosis factor (ligand) superfamily, member 10; NM_003810)", "assay": "Oligo microarray gene expression in A549 cells, TNFSF10", "assay_type": "cell-based, human", "details": "A549, 48 hours at the concentration of Example 1-2, Cy5/Cy3 ratio", "experimental": "as §1, §2, §3"}},
  "data": [
    {"smiles": "CCC=O", "note": "[propionaldehyde]", "values": [
      {"measurement": "Median ratio of microarray by propionaldehyde exposure, LPAR1", "setting": "[1]", "result": 0.62},
      {"measurement": "IC20 at 48 h", "setting": "[2]", "result": 2500, "unit": "µM"},
      {"measurement": "cytotoxicity in the human lung cancer tissue derived cell line", "setting": "A549 cells [3]", "result": "had cytotoxicity"},
      {"measurement": "Median ratio of microarray by propionaldehyde exposure, HMOX1", "setting": "[4]", "result": 1.52},
      {"measurement": "expression patterns of the 5 genes by real-time RT-PCR", "setting": "[5]", "result": "very similar to the results of microarray chip analysis"},
      {"measurement": "Median ratio of microarray by propionaldehyde exposure, AGT", "setting": "[6]", "result": 0.55},
      {"measurement": "genes showing at least 1.5 fold higher expression (Cy5/Cy3 ratio)", "setting": "A549 cells [7]; 900 genes out of 42,405", "result": 2.12, "unit": "%"},
      {"measurement": "genes showing lower expression (Cy5/Cy3 ratio lower than 0.66)", "setting": "A549 cells [7]; 1,522 genes out of 42,405", "result": 3.59, "unit": "%"},
      {"measurement": "Median ratio of microarray by propionaldehyde exposure, SECTM1", "setting": "[8]", "result": 0.63},
      {"measurement": "Median ratio of microarray by propionaldehyde exposure, TNFSF10", "setting": "[9]", "result": 0.65}
    ]}
  ]
}
